Reference: US20230322822A1, “ARYL PHOSPHOROUS OXIDE COMPOUNDS AND USE THEREOF” (Chengdu Di'ao Jiuhong Pharmaceutical Factory, priority 2020, published 2023)

Assays:
[1] = tested on: BaF3 EGFR-DTC(C797S/T790M/Del19) cells; experiment: In-vivo pharmacodynamic study, transplanted tumor model of BaF3 EGFR-DTC(C797S/T790M/Del19) cells in nude mice; parameters: species or system BALB/c nude mice
Description: The models used in this test were subcutaneous transplanted tumor models of engineered BaF3 EGFR-DTC(C797S/T790M/Del19) cells in BALB/c nude mice. The engineered BaF3 cells were cultured in vitro suspension. […] Passages were treated twice a week. When the cell number reached requirement, the cells were collected, counted and inoculated. 0.2 mL (10^6) cells (added with matrigel, 1:1 by volume) were subcutaneously inoculated in the right back of each mouse, and divided into groups for administration with 6 mice per group when the mean tumor volume reached 109 mm^3.
Administration mode and frequency: Oral gavage was carried out with an administration volume of 10 mL/kg, and the model group was administered with the same volume of solvent. The administration was once per day and continuously carried out for 14 days.
(§1) General conditions such as spirit, activity, food intake and the like of the mice were observed every day, and the weight was measured thrice every week; the short diameter (a) and the long diameter (b) of each mouse tumor were measured thrice a week with a vernier caliper, and the tumor volume was calculated according to the formula (a^2×b)/2. The Relative Tumor Volume (RTV) was calculated from the measured tumor volume, wherein RTV=Vt/V0, wherein V0 was the tumor volume at random grouping (i.e., d0) and Vt was the tumor volume at each measurement (i.e., dn). The relative tumor proliferation rate of the evaluation index of the anti-tumor activity was calculated according to the following formula: relative tumor proliferation rate T/C (%): […]
(Note: TRTV: treatment group RTV; CRTV: model control group RTV. According to the therapeutic effect evaluation standard in the Technical Guidelines for Non-clinical Research of Cytotoxic Anti-tumor Drugs Issued by National Medical Products Administration of China, the value (T/C %≤40%) was effective).

NCI-H3122 cells = experiment: In vivo pharmacodynamic study, subcutaneously implanted tumor NCI-H3122 (two-sided model); parameters: species or system BALB/c nude mouse
Description: Passages were treated twice a week. When the cell number reached requirement, the cells were collected, counted and inoculated.
Administration mode and frequency: oral gavage was carried out with an administration volume of 10 mL/kg, and the model group was administered with the same volume of solvent. The administration was once per day and continuously carried out for 16 days.
as §1
Note: TRTV: treatment group RTV; CRTV model control group RTV.

[2] = 25 mg/kg oral gavage once per day
[3] = 50 mg/kg oral gavage once per day
[4] = 20 mg/kg oral gavage once per day
[5] = 40 mg/kg oral gavage once per day

COc1cc(N2CCC(N3CCN(C)CC3)CC2)c(C)cc1Nc1ncc(Br)c(Nc2ccc(C)cc2P(C)(C)=O)n1 [Compound 2]
Tumor volume Day 0 [1, 2]: 109 mm^3 | Relative tumor proliferation rate T/C Day 3 [1, 2]: 59.22% | Tumor volume Day 3 [1, 2]: 87 mm^3 | Relative tumor proliferation rate T/C Day 5 [1, 2]: 34.07% | Tumor volume Day 5 [1, 2]: 62 mm^3 | Relative tumor proliferation rate T/C Day 7 [1, 2]: 10.38% | Tumor volume Day 7 [1, 2]: 41 mm^3 | Relative tumor proliferation rate T/C Day 10 [1, 2]: 5.06% | Tumor volume Day 10 [1, 2]: 31 mm^3 | Relative tumor proliferation rate T/C Day 12 [1, 2]: 3.12% | Tumor volume Day 12 [1, 2]: 27 mm^3 | Tumor volume Day 14 [1, 2]: 41 mm^3 | Tumor volume Day 0 [1, 3]: 109 mm^3 | Relative tumor proliferation rate T/C Day 3 [1, 3]: 44.97% | Tumor volume Day 3 [1, 3]: 67 mm^3 | Relative tumor proliferation rate T/C Day 5 [1, 3]: 24.07% | Tumor volume Day 5 [1, 3]: 44 mm^3 | Relative tumor proliferation rate T/C Day 7 [1, 3]: 7.97% | Tumor volume Day 7 [1, 3]: 32 mm^3 | Relative tumor proliferation rate T/C Day 10 [1, 3]: 3.62% | Tumor volume Day 10 [1, 3]: 22 mm^3 | Relative tumor proliferation rate T/C Day 12 [1, 3]: 1.91% | Tumor volume Day 12 [1, 3]: 17 mm^3 | Tumor volume Day 14 [1, 3]: 12 mm^3 | NCI-H3122 Tumor volume Day 0 (NCI-H3122 cells; [4]): 116 mm^3 | NCI-H3122 T/C Day 2 (NCI-H3122 cells; [4]): 81.79% | NCI-H3122 Tumor volume Day 2 (NCI-H3122 cells; [4]): 115 mm^3 | NCI-H3122 T/C Day 4 (NCI-H3122 cells; [4]): 49.46% | NCI-H3122 Tumor volume Day 4 (NCI-H3122 cells; [4]): 92 mm^3 | NCI-H3122 T/C Day 6 (NCI-H3122 cells; [4]): 34.18% | NCI-H3122 Tumor volume Day 6 (NCI-H3122 cells; [4]): 84 mm^3 | NCI-H3122 T/C Day 9 (NCI-H3122 cells; [4]): 19.71% | NCI-H3122 Tumor volume Day 9 (NCI-H3122 cells; [4]): 74 mm^3 | NCI-H3122 T/C Day 11 (NCI-H3122 cells; [4]): 13.58% | NCI-H3122 Tumor volume Day 11 (NCI-H3122 cells; [4]): 63 mm^3 | NCI-H3122 T/C Day 13 (NCI-H3122 cells; [4]): 10.25% | NCI-H3122 Tumor volume Day 13 (NCI-H3122 cells; [4]): 58 mm^3 | NCI-H3122 T/C Day 16 (NCI-H3122 cells; [4]): 8.16% | NCI-H3122 Tumor volume Day 16 (NCI-H3122 cells; [4]): 61 mm^3 | NCI-H3122 Tumor volume Day 0 (NCI-H3122 cells; [5]): 116 mm^3 | NCI-H3122 T/C Day 2 (NCI-H3122 cells; [5]): 72.16% | NCI-H3122 Tumor volume Day 2 (NCI-H3122 cells; [5]): 101 mm^3 | NCI-H3122 T/C Day 4 (NCI-H3122 cells; [5]): 29.76% | NCI-H3122 Tumor volume Day 4 (NCI-H3122 cells; [5]): 54 mm^3 | NCI-H3122 T/C Day 6 (NCI-H3122 cells; [5]): 19.38% | NCI-H3122 Tumor volume Day 6 (NCI-H3122 cells; [5]): 47 mm^3 | NCI-H3122 T/C Day 9 (NCI-H3122 cells; [5]): 8.54% | NCI-H3122 Tumor volume Day 9 (NCI-H3122 cells; [5]): 33 mm^3 | NCI-H3122 T/C Day 11 (NCI-H3122 cells; [5]): 7.2% | NCI-H3122 Tumor volume Day 11 (NCI-H3122 cells; [5]): 34 mm^3 | NCI-H3122 T/C Day 13 (NCI-H3122 cells; [5]): 5.28% | NCI-H3122 Tumor volume Day 13 (NCI-H3122 cells; [5]): 32 mm^3 | NCI-H3122 T/C Day 16 (NCI-H3122 cells; [5]): 3.6% | NCI-H3122 Tumor volume Day 16 (NCI-H3122 cells; [5]): 28 mm^3
